Assay results published in US7994211B2, “Bicyclo[2.2.1]hept-7-ylamine derivatives and their uses” (Argenta Discovery Limited, priority 2005, dated 2011).

molecular target: T1, human muscarinic receptors (M3) (Homo sapiens, UniProt P20309); assay: Muscarinic receptor radioligand binding assay ([3H]-NMS); settings: membranes expressing human M3 receptor, read-out: Binding potency (M3 binding potencies, Ki values)
T1 construct: purchased
Experimental: Radioligand binding studies utilising [^3H]-N-methyl scopolamine ([^3H]-NMS) and commercially available cell membranes expressing the human muscarinic receptors (M2 and M3) were used to assess the affinity of muscarinic antagonists for M2 and M3 receptors. Membranes in TRIS buffer were incubated in 96-well plates with [^3H]-NMS and M3 antagonist at various concentrations for 3 hours. Membranes and bound radioligand were then harvested by filtration and allowed to dry overnight. Scintillation fluid was then added and the bound radioligand counted using a Canberra Packard Topcount scintillation counter.

T1 sequence (P20309 whole entry): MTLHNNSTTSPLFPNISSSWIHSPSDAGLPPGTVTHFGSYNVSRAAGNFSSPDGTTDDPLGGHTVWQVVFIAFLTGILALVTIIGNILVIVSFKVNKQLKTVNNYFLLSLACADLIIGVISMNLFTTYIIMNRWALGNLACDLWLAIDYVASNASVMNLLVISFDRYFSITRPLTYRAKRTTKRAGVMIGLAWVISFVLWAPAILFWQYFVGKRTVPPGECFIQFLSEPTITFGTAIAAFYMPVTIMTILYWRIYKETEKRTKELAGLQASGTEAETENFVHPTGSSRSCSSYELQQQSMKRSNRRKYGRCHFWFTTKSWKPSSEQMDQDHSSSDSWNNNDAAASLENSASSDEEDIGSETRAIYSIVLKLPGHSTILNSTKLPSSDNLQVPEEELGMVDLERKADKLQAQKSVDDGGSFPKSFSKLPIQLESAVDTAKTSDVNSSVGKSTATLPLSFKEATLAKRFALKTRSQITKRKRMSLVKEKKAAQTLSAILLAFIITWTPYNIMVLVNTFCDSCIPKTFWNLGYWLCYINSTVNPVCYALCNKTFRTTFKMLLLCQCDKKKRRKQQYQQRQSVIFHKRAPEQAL

Row | SMILES | Ki
1 | CN(CCCOc1ccccc1)C1C2CCC1C(OC(=O)Nc1ccccc1-c1ccccc1)C2 (single isomer, unassigned) [Example 9, anti-Biphenyl-2-yl-carbamic acid-7-[methyl-(3-phenoxy-propyl)-amino]bicyclo[2.2.1]hept-2-yl ester] | > 10 nM
2 | CN(CCCOc1ccccc1)C1C2CCC1C(OC(=O)Nc1ccccc1-c1ccccc1)C2 (single isomer, unassigned) [Example 10, anti-Biphenyl-2-yl-carbamic acid-7-[methyl-(3-phenoxy-propyl)-amino]-bicyclo[2.2.1]hept-2-yl ester] | > 10 nM
3 | C[N+](C)(CCCOc1ccccc1)C1C2CCC1C(OCC(O)(c1ccccc1)c1ccccc1)C2 [Example 40, anti-(1S,2R) 2-(2-Hydroxy-2,2-diphenyl-ethoxy)-bicyclo[2.2.1]hept-7-yl]-dimethyl-(3-phenoxy-propyl)-ammonium bromide] | > 10 nM
4 | CN(C)C1C2CCC1C(OC(=O)Nc1ccccc1-c1ccccc1)C2 (racemic) [Example 1, (±)-anti-Biphenyl-2-yl-carbamic acid 7-dimethylamino-bicyclo[2.2.1]hept-2-yl ester] | < 1 nM
5 | CN(C)C1C2CCC1C(OC(=O)Nc1ccccc1-c1ccccc1)C2 (single isomer, unassigned) [Example 6, syn-Biphenyl-2-yl-carbamic acid 7-dimethylamino-bicyclo[2.2.1]hept-2-yl ester] | 1 to 10 nM
6 | CN(C)C1C2CCC1C(OC(=O)Nc1ccccc1-c1ccccc1)C2 (single isomer, unassigned) [Example 2, anti-Biphenyl-2-yl-carbamic acid 7-dimethylamino-bicyclo[2.2.1]hept-2-yl ester] | < 1 nM
7 | C[N+](C)(CCCOc1ccccc1)C1C2CCC1C(OC(=O)Nc1ccccc1-c1ccccc1)C2 (single isomer, unassigned) [Example 12] | < 1 nM
8 | CN(C)C1C2CCC1C(OC(=O)Nc1ccccc1-c1ccccc1)C2 (single isomer, unassigned) [Example 7, syn-Biphenyl-2-yl-carbamic acid 7-dimethylamino-bicyclo[2.2.1]hept-2-yl ester] | 1 to 10 nM

Next, values leading:

Row | Ki | SMILES
9 | < 1 nM | C[N+](C)(CCCOc1ccccc1)C1C2CCC1C(OC(=O)Nc1ccccc1-c1ccccc1)C2 (single isomer, unassigned) [Example 11]
10 | < 1 nM | C[N+](C)(CCCOc1ccccc1)C1C2CCC1C(OC(=O)C1c3ccccc3Oc3ccccc31)C2 [Example 36, anti-(1S,2R) Dimethyl-(3-phenoxy-propyl)-[2-(9H-xanthene-9-carbonyloxy)-bicyclo[2.2.1]hept-7-yl]-ammonium bromide]
11 | 1 to 10 nM | CN(C)C1C2CCC1C(OC(=O)Nc1ccccc1-c1ccccc1)C2 (single isomer, unassigned) [Example 3, anti-Biphenyl-2-yl-carbamic acid 7-dimethylamino-bicyclo[2.2.1]hept-2-yl ester]
12 | 1 to 10 nM | CN(CCCOc1ccccc1)C1C2CCC1C(OC(=O)C1c3ccccc3Oc3ccccc31)C2 [Example 34, anti-(1S,2R) 9H-Xanthene-9-carboxylic acid 7-[methyl-(3-phenoxy-propyl)-amino]-bicyclo[2.2.1]hept-2-yl ester]
13 | 1 to 10 nM | C[N+](C)(C)C1C2CCC1C(OC(=O)Nc1ccccc1-c1ccccc1)C2 (racemic) [Example 8, (±)-syn-[2-(Biphenyl-2-ylcarbamoyloxy)-bicyclo[2.2.1]hept-7-yl]-trimethyl-ammonium iodide]

molecular target: T2, human β2 adrenergic receptor (Homo sapiens, UniProt P07550); assay: β-Adrenergic receptor radioligand binding assay ([125I]-Iodocyanopindolol); settings: not given
T2 construct: purchased
T2 sequence (P07550 whole entry): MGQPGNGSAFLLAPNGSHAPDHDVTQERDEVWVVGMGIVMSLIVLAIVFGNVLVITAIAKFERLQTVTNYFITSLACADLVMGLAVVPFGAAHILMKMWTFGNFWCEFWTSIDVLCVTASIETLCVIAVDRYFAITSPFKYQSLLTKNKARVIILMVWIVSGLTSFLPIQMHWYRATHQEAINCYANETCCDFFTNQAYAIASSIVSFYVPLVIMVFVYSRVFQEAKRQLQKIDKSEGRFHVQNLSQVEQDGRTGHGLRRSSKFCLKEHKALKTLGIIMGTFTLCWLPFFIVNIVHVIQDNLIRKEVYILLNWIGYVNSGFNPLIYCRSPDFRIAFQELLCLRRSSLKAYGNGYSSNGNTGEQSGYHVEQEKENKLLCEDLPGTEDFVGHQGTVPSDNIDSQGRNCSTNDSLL
Experimental: Radioligand binding studies utilising [^125I]-Iodocyanopindolol and commercially available cell membranes expressing the human β2 adrenergic receptor were used to assess the affinity of antagonists for β2-adrenergic receptor. Membranes and SPA-beads were incubated with [^125I]-Iodocyanopindolol and β2 antagonist at various concentrations for 3 hours at ambient temperature in TRIS buffer. The assay was performed in 96-well plates which were read using the Wallac Microbeta counter.

Row | SMILES | Ki
14 | CN(CCCCCCCCCNC[C@H](O)c1ccc(O)c2[nH]c(=O)ccc12)[C@H]1[C@H]2CC[C@@H]1[C@H](OC(=O)C(O)(c1cccs1)c1cccs1)C2 [Example 41, Hydroxy-di-thiophen-2-yl-acetic acid (1S,2R,4S,7S)-7-({9-[(R)-2-hydroxy-2-(8-hydroxy-2-oxo-1,2-dihydro-quinolin-5-yl)-ethylamino]-nonyl}-methyl-amino)-bicyclo[2.2.1]hept-2-yl ester] | < 100 nM
